Experimental data taken from ChEMBL document CHEMBL1146570, “Eudesmane derivatives and other sesquiterpenes from Laggera alata” (J Nat Prod, 2003).

Assays:
KB = assay: Cytotoxicity against human KB cells after 72 hrs; assay type: functional, cell-based
SK-MEL = assay: Cytotoxicity against human SK-MEL cells at 20 ug/mL after 72 hrs; assay type: functional
A549 = assay: Cytotoxicity against human A549 cells at 20 ug/mL after 72 hrs; assay type: functional; details: A549, 72 h

Row | SMILES | IC50 (KB) [µM] | inhibition at 20 µg/mL (SK-MEL) [%] | inhibition at 20 µg/mL (A549) [%]
1 | C=C(C(=O)O)[C@@H]1CC[C@@]2(C)CC[C@@H](O)[C@@](C)(O)[C@@H]2C1 | > 100 |  | 
2 | C=C(C(=O)O)[C@@H]1CC[C@@]2(C)CCC[C@@](C)(O)[C@@H]2C1 [ILICIC ACID] |  | 23.6 | 10.3
